In US20240252506A1 (Hoffmann-La Roche Inc., priority 2021, published 2024):
Converted amounts (≈) assume the structure as drawn.

Test system: Escherichia coli ATCC 25922
Assay: Minimal Inhibitory Concentration (MIC) determination, broth microdilution (CLSI M07-A10)
Format: cell-based
Conditions: Escherichia coli, ATCC25922, strain Escherichia coli ATCC 25922, 18-24 hours at 35±2° C., lowest concentration for complete growth inhibition (no visible growth), read-out: Escherichia coli growth inhibition MIC
Method in brief: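 Broth microdilution per CLSI M07-A10; compounds in 2-fold serial dilutions; inoculum from 0.5 McFarland suspension diluted 1:200 in broth. Incubated 18-24 h at 35±2° C in ambient air; MIC (μg/mL) taken as lowest concentration giving no visible growth.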

O=C(O)C(F)(F)F.O=C1COc2ncc(N3CC4(CCN(CC5Cc6c(c(F)c7[nH]c([C@@H]8C[C@@H](O)CN8)nc7c6F)C5)CC4)OC3=O)nc2N1 [Example 46, 6-[8-[[4,8-Difluoro-2-[(2S,4R)-4-hydroxypyrrolidin-2-yl]-3,5,6,7-tetrahydrocyclopenta[f]benzimidazol-6-yl]methyl]-2-oxo-1-oxa-3,8-diazaspiro[4.5]decan-3-yl]-4H-pyrazino[2,3-b][1,4]oxazin-3-one;2,2,2-trifluoroacetic acid]
MIC: 0.25 µg/mL

O=C(O)C(F)(F)F.O=C1COc2ncc(N3CC(CCNCC4Cc5c(c(F)c6[nH]c([C@@H]7C[C@@H](O)CN7)nc6c5F)C4)OC3=O)nc2N1 (stereo partly drawn) [Example 47, 6-[5-[2-[[4,8-difluoro-2-[(2S,4R)-4-hydroxypyrrolidin-2-yl]-3,5,6,7-tetrahydrocyclopenta[f]benzimidazol-6-yl]methylamino]ethyl]-2-oxo-oxazolidin-3-yl]-4H-pyrazino[2,3-b][1,4]oxazin-3-one; 2,2,2-trifluoroacetic acid]
MIC: 2 µg/mL

O=C(O)C(F)(F)F.O=C1COc2ncc(N3CC4(CCN(CC5Cc6cc7[nH]c([C@@H]8C[C@@H](O)CN8)nc7c(F)c6C5)CC4)OC3=O)nc2N1 (stereo partly drawn) [Example 48, 6-[8-[[8-fluoro-2-[(2S,4R)-4-hydroxypyrrolidin-2-yl]-3,5,6,7-tetrahydrocyclopenta[f]benzimidazol-6-yl]methyl]-2-oxo-1-oxa-3,8-diazaspiro[4.5]decan-3-yl]-4H-pyrazino[2,3-b][1,4]oxazin-3-one; 2,2,2-trifluoroacetic acid]
MIC: 0.25 µg/mL

O=C(O)C(F)(F)F.O=C1COc2ncc(N3CC4(CCN(CC5Cc6c(c(F)c7[nH]c([C@H]8C[C@H](O)CN8)nc7c6F)C5)CC4)OC3=O)nc2N1 [Example 49, 6-[8-[[4,8-difluoro-2-[(2R,4S)-4-hydroxypyrrolidin-2-yl]-3,5,6,7-tetrahydrocyclopenta[f]benzimidazol-6-yl]methyl]-2-oxo-1-oxa-3,8-diazaspiro[4.5]decan-3-yl]-4H-pyrazino[2,3-b][1,4]oxazin-3-one; 2,2,2-trifluoroacetic acid]
MIC: 0.25 µg/mL

O=C(O)C(F)(F)F.O=C1COc2ncc(N3CC4(CCN(CC5Cc6c(c(F)c7[nH]c([C@H]8C[C@@H](O)CN8)nc7c6F)C5)CC4)OC3=O)nc2N1 [Example 50, 6-[8-[[4,8-difluoro-2-[(2R,4R)-4-hydroxypyrrolidin-2-yl]-3,5,6,7-tetrahydrocyclopenta[f]benzimidazol-6-yl]methyl]-2-oxo-1-oxa-3,8-diazaspiro[4.5]decan-3-yl]-4H-pyrazino[2,3-b][1,4]oxazin-3-one; 2,2,2-trifluoroacetic acid]
MIC: 0.25 µg/mL

O=C(O)C(F)(F)F.O=C1COc2ncc(N3CC4(CCN(CC5Cc6c(c(F)c7[nH]c([C@@H]8C[C@H](O)CN8)nc7c6F)C5)CC4)OC3=O)nc2N1 [Example 52, 6-[8-[[4,8-difluoro-2-[(2S,4S)-4-hydroxypyrrolidin-2-yl]-3,5,6,7-tetrahydrocyclopenta[f]benzimidazol-6-yl]methyl]-2-oxo-1-oxa-3,8-diazaspiro[4.5]decan-3-yl]-4H-pyrazino[2,3-b][1,4]oxazin-3-one; 2,2,2-trifluoroacetic acid]
MIC: 0.5 µg/mL

O=C1COc2ncc(N3CC4(CC(NCC5Cc6c(c(F)c7[nH]c([C@H]8C[C@@H](O)CN8)nc7c6F)C5)C4)OC3=O)nc2N1 (stereo partly drawn) [Example 53, 6-[2-[[4,8-difluoro-2-[(2R,4R)-4-hydroxypyrrolidin-2-yl]-3,5,6,7-tetrahydrocyclopenta[f]benzimidazol-6-yl]methylamino]-6-oxo-5-oxa-7-azaspiro[3.4]octan-7-yl]-4H-pyrazino[2,3-b][1,4]oxazin-3-one]
MIC: 4 µg/mL (≈ 6.87 µM)

O=C(O)C(F)(F)F.O=C1COc2ncc(N3CC4(CCN(CC5Cc6c(c(F)c7[nH]c([C@H]8NCC[C@@H]8O)nc7c6F)C5)CC4)OC3=O)nc2N1 [Example 54, 6-[8-[[4,8-difluoro-2-[(2R,3S)-3-hydroxypyrrolidin-2-yl]-3,5,6,7-tetrahydrocyclopenta[f]benzimidazol-6-yl]methyl]-2-oxo-1-oxa-3,8-diazaspiro[4.5]decan-3-yl]-4H-pyrazino[2,3-b][1,4]oxazin-3-one; 2,2,2-trifluoroacetic acid]
MIC: 0.125 µg/mL

Cn1c([C@@H]2C[C@@H](O)CN2)nc2c(F)c3c(c(F)c21)CC(CN1CCC2(CC1)CN(c1cnc4c(n1)NC(=O)CO4)C(=O)O2)C3.O=C(O)C(F)(F)F (stereo partly drawn) [Example 55, 6-[8-[[4,8-difluoro-2-[(2S,4R)-4-hydroxypyrrolidin-2-yl]-1-methyl-6,7-dihydro-5H-cyclopenta[f]benzimidazol-6-yl]methyl]-2-oxo-1-oxa-3,8-diazaspiro[4.5]decan-3-yl]-4H-pyrazino[2,3-b][1,4]oxazin-3-one; 2,2,2-trifluoroacetic acid]
MIC: 0.25 µg/mL

CN[C@H](CO)c1nc2c(F)c3c(c(F)c2[nH]1)CC(CN1CCC2(CC1)CN(c1cnc4c(n1)NC(=O)CO4)C(=O)O2)C3.O=C(O)C(F)(F)F [Example 56, 6-[8-[[4,8-difluoro-2-[(1S)-2-hydroxy-1-(methylamino)ethyl]-3,5,6,7-tetrahydrocyclopenta[f]benzimidaozl-6-yl]methyl]-2-oxo-1-oxa-3,8-diazaspiro[4.5]decan-3-yl]-4H-pyrazino[2,3-b][1,4]oxazin-3-one; 2,2,2-trifluoroacetic acid]
MIC: 0.25 µg/mL

CN[C@H](CO)Cc1nc2c(F)c3c(c(F)c2[nH]1)CC(CN1CCC2(CC1)CN(c1cnc4c(n1)NC(=O)CO4)C(=O)O2)C3 [Example 57, 6-[8-[[4,8-difluoro-2-[(2S)-3-hydroxy-2-(methylamino)propyl]-3,5,6,7-tetrahydrocyclopenta[f]benzimidazol-6-yl]methyl]-2-oxo-1-oxa-3,8-diazaspiro[4.5]decan-3-yl]-4H-pyrazino[2,3-b][1,4]oxazin-3-one]
MIC: 0.5 µg/mL (≈ 0.835 µM)

CN1C[C@H](O)C[C@H]1c1nc2c(F)c3c(c(F)c2[nH]1)CC(CN1CCC2(CC1)CN(c1cnc4c(n1)NC(=O)CO4)C(=O)O2)C3 [Example 58, 6-[8-[[4,8-Difluoro-2-[(2S,4R)-4-hydroxy-1-methyl-pyrrolidin-2-yl]-3,5,6,7-tetrahydrocyclopenta[f]benzimidazol-6-yl]methyl]-2-oxo-1-oxa-3,8-diazaspiro[4.5]decan-3-yl]-4H-pyrazino[2,3-b][1,4]oxazin-3-one]
MIC: 1 µg/mL (≈ 1.64 µM)

CNCC(=O)NCCn1nnc2c(F)c3c(c(F)c21)CC(CN1CCC2(CC1)CN(c1cnc4c(n1)NC(=O)CO4)C(=O)O2)C3 (centres unmarked) [Example 61, N-[2-[4,8-Difluoro-6-[[2-oxo-3-(3-oxo-4H-pyrazino[2,3-b][1,4]oxazin-6-yl)-1-oxa-3,8-diazaspiro[4.5]decan-8-yl]methyl]-6,7-dihydro-5H-cyclopenta[f]benzotriazol-1-yl]ethyl]-2-(methylamino)acetamide]
MIC: 0.5 µg/mL (≈ 0.798 µM)

CN(C)CCc1nc2cc3c(c(F)c2o1)CC(CN1CCC2(CC1)CN(c1cnc4c(n1)NC(=O)CO4)C(=O)O2)C3 (centres unmarked) [Example 62, 6-[8-[[2-[2-(Dimethylamino)ethyl]-8-fluoro-6,7-dihydro-5H-cyclopenta[f][1,3]benzoxazol-6-yl]methyl]-2-oxo-1-oxa-3,8-diazaspiro[4.5]decan-3-yl]-4H-pyrazino[2,3-b][1,4]oxazin-3-one]
MIC: 0.25 µg/mL (≈ 0.442 µM)

CN(C)[C@H](CO)Cc1nc2c(F)c3c(c(F)c2[nH]1)CC(CN1CCC2(CC1)CN(c1cnc4c(n1)NC(=O)CO4)C(=O)O2)C3 [Example 63, 6-[8-[[2-[(2S)-2-(Dimethylamino)-3-hydroxy-propyl]-4,8-difluoro-3,5,6,7-tetrahydrocyclopenta[f]benzimidazol-6-yl]methyl]-2-oxo-1-oxa-3,8-diazaspiro[4.5]decan-3-yl]-4H-pyrazino[2,3-b][1,4]oxazin-3-one]
MIC: 0.25 µg/mL (≈ 0.408 µM)

CN(C)CCn1nnc2c(F)c3c(c(F)c21)CC(CN1CCC2(CC1)CN(c1cnc4c(n1)NC(=O)CO4)C(=O)O2)C3 (centres unmarked) [Example 64, 6-[8-[[1-[2-(Dimethylamino)ethyl]-4,8-difluoro-6,7-dihydro-5H-cyclopenta[f]benzotriazol-6-yl]methyl]-2-oxo-1-oxa-3,8-diazaspiro[4.5]decan-3-yl]-4H-pyrazino[2,3-b][1,4]oxazin-3-one]
MIC: 0.25 µg/mL (≈ 0.428 µM)

CN(C)CCn1nnc2c(F)c3c(cc21)CC(CN1CCC2(CC1)CN(c1cnc4c(n1)NC(=O)CO4)C(=O)O2)C3 (centres unmarked) [Example 65, 6-[8-[[3-[2-(Dimethylamino)ethyl]-8-fluoro-6,7-dihydro-5H-cyclopenta[f]benzotriazol-6-yl]methyl]-2-oxo-1-oxa-3,8-diazaspiro[4.5]decan-3-yl]-4H-pyrazino[2,3-b][1,4]oxazin-3-one]
MIC: 0.125 µg/mL (≈ 0.221 µM)

C[C@@H](N)c1nc2c(F)c3c(c(F)c2n1C)CC(CN1CCC2(CC1)CN(c1cnc4c(n1)NC(=O)CO4)C(=O)O2)C3 (stereo partly drawn) [Example 68, 6-[8-[[2-[(1R)-1-aminoethyl]-4,8-difluoro-1-methyl-6,7-dihydro-5H-cyclopenta[f]benzimidazol-6-yl]methyl]-2-oxo-1-oxa-3,8-diazaspiro[4.5]decan-3-yl]-4H-pyrazino[2,3-b][1,4]oxazin-3-one]
MIC: 0.125 µg/mL (≈ 0.22 µM)

CNCCc1nc2cc3c(c(F)c2[nH]1)CC(CN1CCC2(CC1)CN(c1cnc4c(n1)NC(=O)CO4)C(=O)O2)C3 (centres unmarked) [Example 69, 6-[8-[[8-fluoro-2-[2-(methylamino)ethyl]-1,5,6,7-tetrahydrocyclopenta[f]benzimidazol-6-yl]methyl]-2-oxo-1-oxa-3,8-diazaspiro[4.5]decan-3-yl]-4H-pyrazinio[2,3-b][1,4]oxazin-3-one]
MIC: 0.25 µg/mL (≈ 0.454 µM)

COCCNCc1nc2c(F)c3c(cc2[nH]1)CC(CN1CCC2(CC1)CN(c1cnc4c(n1)NC(=O)CO4)C(=O)O2)C3 (centres unmarked) [Example 70, 6-[8-[[8-fluoro-2-[(2-methoxyethylamino)methyl]-3,5,6,7-tetrahydrocyclopenta[f]benzimidazol-6-yl]methyl]-2-oxo-1-oxa-3,8-diazaspiro[4.5]decan-3-yl]-4H-pyrazino[2,3-b][1,4]oxazin-3-one]
MIC: 0.25 µg/mL (≈ 0.431 µM)
